Experiments:
Assay in all cases: relative viability (nuclei count vs DMSO), 5 days (fraction); higher = more cells survive
CAP-232 + Dasatinib = compound: C[C@H]([C@@H](C(=O)N)NC(=O)[C@@H]1CSSC[C@@H](C(=O)N[C@H](C(=O)N[C@@H](C(=O)N[C@H](C(=O)N1)CCCCN)CC2=CNC3=CC=CC=C32)CC4=CC=C(C=C4)O)NC(=O)[C@@H](CC5=CC=CC=C5)N)O [CAP-232] + Cc1nc(Nc2ncc(C(=O)Nc3c(C)cccc3Cl)s2)cc(N2CCN(CCO)CC2)n1 [Dasatinib] (partner 0.075 µM)
In short: (§1)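 A single step with final 0.05% Triton X-100, 1% formaldehyde and 1 ug/ml Hoechst fixed the cells and stained nuclei 5 days after treatment. Lung cancer cell lines in 1536-well plates had been treated by pin tool the day after seeding with one drug alone or a fixed anchor-drug dose plus five library-drug doses (not always all listed) in √10 steps, and nuclei were counted on 4× images. Relative viability is the ratio of nuclei in treated wells to nuclei in vehicle wells, taken as the median of duplicate plates.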

CAP-232 + Lapatinib = compound: C[C@H]([C@@H](C(=O)N)NC(=O)[C@@H]1CSSC[C@@H](C(=O)N[C@H](C(=O)N[C@@H](C(=O)N[C@H](C(=O)N1)CCCCN)CC2=CNC3=CC=CC=C32)CC4=CC=C(C=C4)O)NC(=O)[C@@H](CC5=CC=CC=C5)N)O [CAP-232] + CS(=O)(=O)CCNCc1ccc(-c2ccc3ncnc(Nc4ccc(OCc5cccc(F)c5)c(Cl)c4)c3c2)o1 [Lapatinib] (partner 2 µM)
In short: as §1

CAP-232 + Trametinib = compound: C[C@H]([C@@H](C(=O)N)NC(=O)[C@@H]1CSSC[C@@H](C(=O)N[C@H](C(=O)N[C@@H](C(=O)N[C@H](C(=O)N1)CCCCN)CC2=CNC3=CC=CC=C32)CC4=CC=C(C=C4)O)NC(=O)[C@@H](CC5=CC=CC=C5)N)O [CAP-232] + CC(=O)Nc1cccc(-n2c(=O)n(C3CC3)c(=O)c3c(Nc4ccc(I)cc4F)n(C)c(=O)c(C)c32)c1 [Trametinib] (partner 0.02 µM)
In short: as §1

CAP-232 + Foretinib = compound: C[C@H]([C@@H](C(=O)N)NC(=O)[C@@H]1CSSC[C@@H](C(=O)N[C@H](C(=O)N[C@@H](C(=O)N[C@H](C(=O)N1)CCCCN)CC2=CNC3=CC=CC=C32)CC4=CC=C(C=C4)O)NC(=O)[C@@H](CC5=CC=CC=C5)N)O [CAP-232] + COc1cc2c(Oc3ccc(NC(=O)C4(C(=O)Nc5ccc(F)cc5)CC4)cc3F)ccnc2cc1OCCCN1CCOCC1 [Foretinib] (partner 0.25 µM)
In short: as §1

CAP-232 + Navitoclax = compound: C[C@H]([C@@H](C(=O)N)NC(=O)[C@@H]1CSSC[C@@H](C(=O)N[C@H](C(=O)N[C@@H](C(=O)N[C@H](C(=O)N1)CCCCN)CC2=CNC3=CC=CC=C32)CC4=CC=C(C=C4)O)NC(=O)[C@@H](CC5=CC=CC=C5)N)O [CAP-232] + CC1(C)CCC(c2ccc(Cl)cc2)=C(CN2CCN(c3ccc(C(=O)NS(=O)(=O)c4ccc(N[C@H](CCN5CCOCC5)CSc5ccccc5)c(S(=O)(=O)C(F)(F)F)c4)cc3)CC2)C1 [Navitoclax] (partner 0.5 µM)
In short: as §1

| Cell Line | relative viability (CAP-232 + Dasatinib; first compound 0.4 µM) | relative viability (CAP-232 + Dasatinib; first compound 1.265 µM) | relative viability (CAP-232 + Dasatinib; first compound 4 µM) | relative viability (CAP-232 + Dasatinib; first compound 12.65 µM) | relative viability (CAP-232 + Lapatinib; first compound 0.4 µM) | relative viability (CAP-232 + Lapatinib; first compound 1.265 µM) | relative viability (CAP-232 + Lapatinib; first compound 4 µM) | relative viability (CAP-232 + Lapatinib; first compound 12.65 µM) | relative viability (CAP-232 + Trametinib; first compound 0.4 µM) | relative viability (CAP-232 + Trametinib; first compound 1.265 µM) | relative viability (CAP-232 + Trametinib; first compound 4 µM) | relative viability (CAP-232 + Trametinib; first compound 12.65 µM) | relative viability (CAP-232 + Foretinib; first compound 0.4 µM) | relative viability (CAP-232 + Foretinib; first compound 1.265 µM) | relative viability (CAP-232 + Foretinib; first compound 4 µM) | relative viability (CAP-232 + Foretinib; first compound 12.65 µM) | relative viability (CAP-232 + Navitoclax; first compound 0.4 µM) | relative viability (CAP-232 + Navitoclax; first compound 1.265 µM) | relative viability (CAP-232 + Navitoclax; first compound 4 µM) | relative viability (CAP-232 + Navitoclax; first compound 12.65 µM) |
| --- | --- | --- | --- | --- | --- | --- | --- | --- | --- | --- | --- | --- | --- | --- | --- | --- | --- | --- | --- | --- |
| NCI-H2023 | 0.696 | 0.598 | 0.608 | 0.137 | 0.743 | 0.761 | 0.797 | 0.38 | 0.656 | 0.555 | 0.48 | 0.205 | 0.899 | 0.946 | 0.766 | 0.294 | 1.15 | 1 | 1.06 | 0.579 |
| NCI-H2085 | 0.232 | 0.193 | 0.223 | 0.19 | 0.833 | 0.789 | 0.732 | 0.878 | 0.514 | 0.586 | 0.532 | 0.569 | 0.933 | 0.87 | 1.1 | 0.998 | 1.18 | 1.06 | 1.15 | 1.15 |
| NCI-H2087 | 0.681 | 0.969 | 0.757 | 0.737 | 1.08 | 1.02 | 1.03 | 0.519 | 0.188 | 0.228 | 0.201 | 0.205 | 1.17 | 1.2 | 1.1 | 0.665 | 1.19 | 1.16 | 1.02 | 0.616 |
| NCI-H2126 | 0.639 | 0.585 | 0.704 | 0.571 | 0.762 | 0.694 | 0.895 | 0.797 | 0.622 | 0.523 | 0.561 | 0.602 | 1.34 | 1.33 | 1.63 | 1.11 | 0.864 | 0.804 | 0.843 | 0.851 |
| NCI-H2170 | 0.684 | 0.558 | 0.557 | 0.58 | 0.274 | 0.281 | 0.255 | 0.272 | 0.977 | 0.918 | 1.05 | 1.08 | 1 | 1.04 | 1.02 | 1.05 | 0.68 | 0.573 | 0.578 | 0.603 |
| NCI-H2228 | 0.482 | 0.565 | 0.479 | 0.365 | 1.32 | 0.907 | 1.66 | 0.904 | 0.473 | 0.523 | 0.715 | 0.414 | 0.826 | 0.938 | 1.09 | 0.485 | 0.84 | 0.96 | 0.473 | 1.01 |
| NCI-H2347 | 0.28 | 0.285 | 0.342 | 0.292 | 0.944 | 0.898 | 0.931 | 0.864 | 0.34 | 0.255 | 0.256 | 0.241 | 0.804 | 0.524 | 1.11 | 1.05 | 0.834 | 0.951 | 0.718 | 0.72 |
| NCI-H2405 | 0.233 | 0.203 | 0.196 | 0.208 | 1.03 | 0.99 | 1.12 | 0.722 | 0.416 | 0.673 | 0.558 | 0.447 | 1.04 | 1.11 | 1.05 | 0.79 | 0.821 | 1.07 | 0.795 | 0.562 |

— the supplement of paper PMC10307832
